This assay deals with MV-4-11 cells. Kind of assay: Gene expression microarray analysis (Affymetrix PrimeView) and GSEA. It is filed as cell-based, human. Details: RFU PODN (11730768_x_at) / Fold change /veh PODN (11730768_x_at) / RFU LINC00158 (11744669_a_at) / Fold change /veh LINC00158 (11744669_a_at) / RFU DUSP10 (11751237_a_at) / Fold change /veh DUSP10 (11751237_a_at) / RFU ID3 (11757404_x_at) / Fold change /veh ID3 (11757404_x_at) / RFU PLEKHG5 (11737974_s_at) / Fold change /veh PLEKHG5 (11737974_s_at) / RFU LRRC4B (11730491_at) / Fold change /veh LRRC4B (11730491_at) / RFU GIMAP4 (11747438_a_at) / Fold change /veh GIMAP4 (11747438_a_at) / RFU KRT8 (11758183_x_at) / Fold change /veh KRT8 (11758183_x_at) / RFU CNN1 (11734310_a_at) / Fold change /veh CNN1 (11734310_a_at) / RFU VPS37D (11726825_at) / Fold change /veh VPS37D (11726825_at) / RFU C10orf10 (11716522_x_at) / Fold change /veh C10orf10 (11716522_x_at) / RFU KIR2DL2 /// KIR2DL4 /// KIR2DL5A /// KIR2DL5B /// KIR2DS1 /// KIR2DS2 /// KIR2DS3 /// KIR2DS4 /// KIR3DL3 /// KIR3DL3 /// KIR3DS1 (11738374_at) / Fold change /veh KIR2DL2 /// KIR2DL4 /// KIR2DL5A /// KIR2DL5B /// KIR2DS1 /// KIR2DS2 /// KIR2DS3 /// KIR2DS4 /// KIR3DL3 /// KIR3DL3 /// KIR3DS1 (11738374_at) / RFU C1QL1 (11718748_at) / Fold change /veh C1QL1 (11718748_at) / RFU TMPRSS4 (11747572_a_at) / Fold change /veh TMPRSS4 (11747572_a_at) / RFU HAMP (11756126_x_at) / Fold change /veh HAMP (11756126_x_at) / RFU RNFT2 (11725882_a_at) / Fold change /veh RNFT2 (11725882_a_at) / RFU NR4A2 (11747474_a_at) / Fold change /veh NR4A2 (11747474_a_at) / RFU ABCC12 (11746883_a_at) / Fold change /veh ABCC12 (11746883_a_at) / RFU TMEM136 (11760407_x_at) / Fold change /veh TMEM136 (11760407_x_at) / RFU CLDN22 /// WWC2 (11732394_at) / Fold change /veh CLDN22 /// WWC2 (11732394_at) / RFU HLA-DPB1 (11760878_x_at) / Fold change /veh HLA-DPB1 (11760878_x_at) / RFU SPINT1 (11716480_a_at) / Fold change /veh SPINT1 (11716480_a_at) / RFU GAP43 (11754022_s_at) / Fold change /veh GAP43 (11754022_s_at) / RFU A4GNT (11735810_at) / Fold change /veh A4GNT (11735810_at) / RFU PRB3 (11715151_x_at) / Fold change /veh PRB3 (11715151_x_at) / RFU TUBB4B (11761932_at) / Fold change /veh TUBB4B (11761932_at) / RFU CAPN14 (11732068_a_at) / Fold change /veh CAPN14 (11732068_a_at) / RFU TMCC2 (11721928_a_at) / Fold change /veh TMCC2 (11721928_a_at) / RFU IRGQ (11745062_a_at) / Fold change /veh IRGQ (11745062_a_at) / RFU FAM174B (11720279_a_at) / Fold change /veh FAM174B (11720279_a_at) / RFU TMPRSS4 (11748680_a_at) / Fold change /veh TMPRSS4 (11748680_a_at) / RFU FAM212B (11763350_a_at) / Fold change /veh FAM212B (11763350_a_at) / RFU PLEKHG5 (11743358_a_at) / Fold change /veh PLEKHG5 (11743358_a_at) / RFU ZSCAN30 (11745921_a_at) / Fold change /veh ZSCAN30 (11745921_a_at) / RFU CMKLR1 (11741424_a_at) / Fold change /veh CMKLR1 (11741424_a_at) / RFU LOC101060620 /// MAPK8IP1 (11723275_at) / Fold change /veh LOC101060620 /// MAPK8IP1 (11723275_at) / RFU SPTSSB (11747773_x_at) / Fold change /veh SPTSSB (11747773_x_at) / RFU PRSS12 (11739890_at) / Fold change /veh PRSS12 (11739890_at) / RFU BIN1 (11741810_x_at) / Fold change /veh BIN1 (11741810_x_at) / RFU WNT11 (11732464_a_at) / Fold change /veh WNT11 (11732464_a_at) / RFU C10orf10 (11716521_a_at) / Fold change /veh C10orf10 (11716521_a_at) / RFU C5orf56 (11738089_at) / Fold change /veh C5orf56 (11738089_at) / RFU CYB561 (11721691_x_at) / Fold change /veh CYB561 (11721691_x_at) / RFU ANKRD19P (11752326_a_at) / Fold change /veh ANKRD19P (11752326_a_at) / RFU OR2T12 /// OR2T33 /// OR2T8 (11738714_s_at) / Fold change /veh OR2T12 /// OR2T33 /// OR2T8 (11738714_s_at) / RFU VCAN (11748164_a_at) / Fold change /veh VCAN (11748164_a_at) / RFU JSRP1 (11732532_at) / Fold change /veh JSRP1 (11732532_at) / RFU KRTAP10-11 (11738290_x_at) / Fold change /veh KRTAP10-11 (11738290_x_at) / RFU MYO3A (11730013_a_at) / Fold change /veh MYO3A (11730013_a_at) / RFU EBF3 (11725865_a_at) / Fold change /veh EBF3 (11725865_a_at) / RFU CAMK2N1 (11719241_x_at) / Fold change /veh CAMK2N1 (11719241_x_at) / RFU C5orf56 (11738088_a_at) / Fold change /veh C5orf56 (11738088_a_at) / RFU OLFML3 (11715873_a_at) / Fold change /veh OLFML3 (11715873_a_at) / RFU LOC100653217 /// NTM (11731650_a_at) / Fold change /veh LOC100653217 /// NTM (11731650_a_at) / RFU MAPK11 (11762145_a_at) / Fold change /veh MAPK11 (11762145_a_at) / RFU FIZ1 (11724087_x_at) / Fold change /veh FIZ1 (11724087_x_at) / RFU OASL (11726364_x_at) / Fold change /veh OASL (11726364_x_at) / RFU SOX15 (11748057_x_at) / Fold change /veh SOX15 (11748057_x_at) / RFU CD79A (11719716_a_at) / Fold change /veh CD79A (11719716_a_at) / RFU HIST1H1D (11736915_at) / Fold change /veh HIST1H1D (11736915_at) / RFU CASKIN2 (11723855_a_at) / Fold change /veh CASKIN2 (11723855_a_at) / RFU LOC730098 (11760151_x_at) / Fold change /veh LOC730098 (11760151_x_at) / RFU OR4N2 (11742367_at) / Fold change /veh OR4N2 (11742367_at) / RFU PRRT2 (11749266_a_at) / Fold change /veh PRRT2 (11749266_a_at) / RFU SNX32 (11753110_a_at) / Fold change /veh SNX32 (11753110_a_at) / RFU CDHR5 (11726645_a_at) / Fold change /veh CDHR5 (11726645_a_at) / RFU RCAN1 (11760418_a_at) / Fold change /veh RCAN1 (11760418_a_at) / RFU FAM167A (11723789_a_at) / Fold change /veh FAM167A (11723789_a_at) / RFU FAM26E (11764081_at) / Fold change /veh FAM26E (11764081_at) / RFU ISYNA1 (11749810_s_at) / Fold change /veh ISYNA1 (11749810_s_at) / RFU ACY1 (11761880_at) / Fold change /veh ACY1 (11761880_at) / RFU 11764098_at / Fold change /veh 11764098_at / RFU SAMD14 (11745864_x_at) / Fold change /veh SAMD14 (11745864_x_at) / RFU NPB (11741838_a_at) / Fold change /veh NPB (11741838_a_at) / RFU TMPRSS6 (11731388_a_at) / Fold change /veh TMPRSS6 (11731388_a_at) / RFU KRTAP10-2 (11738614_at) / Fold change /veh KRTAP10-2 (11738614_at) / RFU ARHGAP8 /// PRR5-ARHGAP8 (11727945_x_at) / Fold change /veh ARHGAP8 /// PRR5-ARHGAP8 (11727945_x_at) / RFU KRTAP5-7 /// NADSYN1 (11734609_at) / Fold change /veh KRTAP5-7 /// NADSYN1 (11734609_at) / RFU RASL12 (11751679_a_at) / Fold change /veh RASL12 (11751679_a_at) / RFU CDKN2B (11736163_a_at) / Fold change /veh CDKN2B (11736163_a_at) / RFU PRF1 (11729649_at) / Fold change /veh PRF1 (11729649_at) / RFU, ZNF638 /// ZNF638-IT1 / Fold change vs veh, ZNF638 /// ZNF638-IT1 / RFU, PANK3 / Fold change vs veh, PANK3 / RFU, SH3YL1 / Fold change vs veh, SH3YL1 / RFU, ZEB2 / Fold change vs veh, ZEB2 / RFU, NRIP1 / Fold change vs veh, NRIP1 / RFU, PTTG1IP / Fold change vs veh, PTTG1IP / RFU, CAPN2 / Fold change vs veh, CAPN2 / RFU, MED14 / Fold change vs veh, MED14 / RFU, SNORA58 / Fold change vs veh, SNORA58 / RFU, C1orf63 / Fold change vs veh, C1orf63 / RFU, LRRFIP1 / Fold change vs veh, LRRFIP1 / RFU, NDUFAF7 / Fold change vs veh, NDUFAF7 / RFU, SLC12A2 / Fold change vs veh, SLC12A2 / RFU, IBTK / Fold change vs veh, IBTK / RFU, ESF1 / Fold change vs veh, ESF1 / Fold change vs veh, TMEM50B / RFU, TAOK1 / Fold change vs veh, TAOK1 / RFU, ACBD3 / Fold change vs veh, ACBD3 / RFU, TMA16 / Fold change vs veh, TMA16 / RFU, RWDD3 / Fold change vs veh, RWDD3 / RFU, BCAT1 / Fold change vs veh, BCAT1 / RFU, EDEM3 / Fold change vs veh, EDEM3 / RFU, TMEM33 / Fold change vs veh, TMEM33 / RFU, WDR75 / Fold change vs veh, WDR75 / RFU, AHCTF1 / Fold change vs veh, AHCTF1 / RFU, TFRC / Fold change vs veh, TFRC / RFU, ZDHHC17 / Fold change vs veh, ZDHHC17 / RFU, NOM1 / Fold change vs veh, NOM1 / RFU, ARL8B / Fold change vs veh, ARL8B / RFU, ZBTB11 / Fold change vs veh, ZBTB11 / RFU, TAMM41 / Fold change vs veh, TAMM41 / RFU, KIAA1704 /// LOC100996395 / Fold change vs veh, KIAA1704 /// LOC100996395 / RFU, ING1 / Fold change vs veh, ING1 / RFU, TRMT61B / Fold change vs veh, TRMT61B / RFU, FUBP3 / Fold change vs veh, FUBP3 / RFU, TP53 / Fold change vs veh, TP53 / RFU, TNKS2 / Fold change vs veh, TNKS2 / RFU, ZFP14 / Fold change vs veh, ZFP14 / RFU, ACTR2 / Fold change vs veh, ACTR2 / RFU, PPP3R1 / Fold change vs veh, PPP3R1 / RFU, PIK3R1 / Fold change vs veh, PIK3R1 / RFU, HNRNPA1 / Fold change vs veh, HNRNPA1 / RFU, RNF170 / Fold change vs veh, RNF170 / RFU, ZNF28 / Fold change vs veh, ZNF28 / RFU, RNGTT / Fold change vs veh, RNGTT / RFU, OGT / Fold change vs veh, OGT / RFU, BRD1 / Fold change vs veh, BRD1 / RFU, MARS / Fold change vs veh, MARS / RFU, ZNF655 / Fold change vs veh, ZNF655 / RFU, FAHD1 / Fold change vs veh, FAHD1 / RFU, BDP1 / Fold change vs veh, BDP1 / RFU, LRRCC1 / Fold change vs veh, LRRCC1 / RFU, ARID1A / Fold change vs veh, ARID1A / RFU, ZNF146 / Fold change vs veh, ZNF146 / RFU, ZNF330 / Fold change vs veh, ZNF330 / RFU, GPN3 / Fold change vs veh, GPN3 / RFU, C9orf123 / Fold change vs veh, C9orf123 / RFU, N4BP2L2 / Fold change vs veh, N4BP2L2 / RFU, ARFIP1 / Fold change vs veh, ARFIP1 / RFU, FAM179B / Fold change vs veh, FAM179B / RFU, BCL10 / Fold change vs veh, BCL10 / RFU, UHRF1BP1L / Fold change vs veh, UHRF1BP1L / RFU, BET1 / Fold change vs veh, BET1 / RFU, CNOT2 / Fold change vs veh, CNOT2 / RFU, ZNF268 / Fold change vs veh, ZNF268 / Fold change vs veh, ZNF507 / RFU, DGCR2 / Fold change vs veh, DGCR2 / RFU, WDSUB1 / Fold change vs veh, WDSUB1 / Fold change vs veh, HSP90B1 /// MIR3652 / RFU, ADSS / Fold change vs veh, ADSS / RFU, GK / Fold change vs veh, GK / RFU, ZNF148 / Fold change vs veh, ZNF148 / RFU, TAF9 / Fold change vs veh, TAF9 / RFU, SLC1A5 / Fold change vs veh, SLC1A5 / RFU, SLMO2 / Fold change vs veh, SLMO2 / RFU, ABCC4 / Fold change vs veh, ABCC4 / RFU, LOC101060439 /// RAP1B / Fold change vs veh, LOC101060439 /// RAP1B / RFU, RFX7 / Fold change vs veh, RFX7 / RFU, GTPBP10 / Fold change vs veh, GTPBP10 / RFU, CNEP1R1 / Fold change vs veh, CNEP1R1 / RFU, BIVM-ERCC5 /// ERCC5 / Fold change vs veh, BIVM-ERCC5 /// ERCC5 / RFU, ILF3 / Fold change vs veh, ILF3 / RFU 11762660_at / Fold change /veh 11762660_at / RFU VCAN (11757783_s_at) / Fold change /veh VCAN (11757783_s_at) / RFU DDX43 (11728927_at) / Fold change /veh DDX43 (11728927_at) / RFU KRT8 (11758188_x_at) / Fold change /veh KRT8 (11758188_x_at) / RFU NKD1 (11759106_at) / Fold change /veh NKD1 (11759106_at) / RFU SRD5A1 (11742802_a_at) / Fold change /veh SRD5A1 (11742802_a_at) / RFU TPSAB1 /// TPSB2 (11721975_s_at) / Fold change /veh TPSAB1 /// TPSB2 (11721975_s_at) / RFU GSTM3 (11746129_a_at) / Fold change /veh GSTM3 (11746129_a_at) / RFU IL23R (11737362_x_at) / Fold change /veh IL23R (11737362_x_at) / RFU TMEM51 (11727254_a_at) / Fold change /veh TMEM51 (11727254_a_at) / RFU PIWIL2 (11732686_x_at) / Fold change /veh PIWIL2 (11732686_x_at) / RFU ORM1 (11744905_x_at) / Fold change /veh ORM1 (11744905_x_at) / RFU CCDC152 (11743942_at) / Fold change /veh CCDC152 (11743942_at) / RFU ECM1 (11717891_a_at) / Fold change /veh ECM1 (11717891_a_at) / RFU IL23R (11748794_a_at) / Fold change /veh IL23R (11748794_a_at) / RFU TNFAIP8L3 (11732012_x_at) / Fold change /veh TNFAIP8L3 (11732012_x_at) / RFU MBOAT4 (11741988_at) / Fold change /veh MBOAT4 (11741988_at) / RFU 11764193_at / Fold change /veh 11764193_at / RFU TMEM53 (11763286_at) / Fold change /veh TMEM53 (11763286_at) / RFU MAGEB2 (11727129_at) / Fold change /veh MAGEB2 (11727129_at) / RFU TMEM200A (11744735_a_at) / Fold change /veh TMEM200A (11744735_a_at) / RFU CCDC152 (11751479_a_at) / Fold change /veh CCDC152 (11751479_a_at) / RFU FAM211A (11726209_a_at) / Fold change /veh FAM211A (11726209_a_at) / RFU RGS16 (11746705_a_at) / Fold change /veh RGS16 (11746705_a_at) / RFU VCAN (11755009_s_at) / Fold change /veh VCAN (11755009_s_at) / RFU RHOB (11743442_s_at) / Fold change /veh RHOB (11743442_s_at) / RFU RGS16 (11720943_a_at) / Fold change /veh RGS16 (11720943_a_at) / RFU RGS16 (11720944_at) / Fold change /veh RGS16 (11720944_at) / RFU, VPS4B / Fold change vs veh, VPS4B / RFU, CREB1 / Fold change vs veh, CREB1 / RFU, DNAJC13 / Fold change vs veh, DNAJC13 / RFU, GNAQ / Fold change vs veh, GNAQ / RFU, CDK5R1 / Fold change vs veh, CDK5R1 / RFU, ZRANB3 / Fold change vs veh, ZRANB3 / RFU, CUL4A / Fold change vs veh, CUL4A / RFU, CCNY / Fold change vs veh, CCNY / RFU, UFL1 / Fold change vs veh, UFL1 / RFU, COG3 / Fold change vs veh, COG3 / RFU, DIAPH2 / Fold change vs veh, DIAPH2 / RFU, SKA2 / Fold change vs veh, SKA2 / RFU, AFF3 / Fold change vs veh, AFF3 / RFU, LMF1 / Fold change vs veh, LMF1 / RFU, IPO11 / Fold change vs veh, IPO11 / RFU, DFFB / Fold change vs veh, DFFB / RFU, FOXP1 / Fold change vs veh, FOXP1 / RFU, CARD8 / Fold change vs veh, CARD8 / RFU, STRN3 / Fold change vs veh, STRN3 / RFU, ADK / Fold change vs veh, ADK / RFU, RASSF2 / Fold change vs veh, RASSF2 / RFU, WIPF1 / Fold change vs veh, WIPF1 / RFU, LARP1B / Fold change vs veh, LARP1B / RFU, RASA1 / Fold change vs veh, RASA1 / RFU, RB1 / Fold change vs veh, RB1 / RFU, PPFIA1 / Fold change vs veh, PPFIA1 / RFU, MAT2A / Fold change vs veh, MAT2A / RFU, CCT5 / Fold change vs veh, CCT5 / RFU, WDR92 / Fold change vs veh, WDR92 / RFU, CUX1 / Fold change vs veh, CUX1 / RFU, TTC7A / Fold change vs veh, TTC7A / RFU, TMEM135 / Fold change vs veh, TMEM135 / RFU, DEPTOR / Fold change vs veh, DEPTOR / RFU, CPM / Fold change vs veh, CPM / RFU, DNAJB6 / Fold change vs veh, DNAJB6 / RFU, CACNA2D3 / Fold change vs veh, CACNA2D3 / RFU, DTX4 / Fold change vs veh, DTX4 / RFU, TFCP2 / Fold change vs veh, TFCP2 / RFU, GMCL1 /// GMCL1P1 / Fold change vs veh, GMCL1 /// GMCL1P1 / RFU, AEBP2 / Fold change vs veh, AEBP2 / RFU, SNHG1 /// SNORD22 /// SNORD25 /// SNORD26 /// SNORD27 /// SNORD28 /// SNORD29 /// SNORD31 / Fold change vs veh, SNHG1 /// SNORD22 /// SNORD25 /// SNORD26 /// SNORD27 /// SNORD28 /// SNORD29 /// SNORD31 / Fold change (Aza/veh), C12orf56 (ProbeSet 11735607_a_at) / Fold change (ACY-1035/veh), C12orf56 (ProbeSet 11735607_a_at) / Fold change (Aza/veh), FGFR1OP (ProbeSet 11751329_s_at) / Fold change (ACY-1035/veh), FGFR1OP (ProbeSet 11751329_s_at) / Fold change (Aza/veh), VPS36 (ProbeSet 11739960_a_at) / Fold change (ACY-1035/veh), VPS36 (ProbeSet 11739960_a_at) / RFU SYPL1 (11715823_x_at) / Fold change /veh SYPL1 (11715823_x_at) / RFU IGFBP7 (11715501_s_at) / Fold change /veh IGFBP7 (11715501_s_at) / RFU REEP3 (11722064_at) / Fold change /veh REEP3 (11722064_at) / RFU IGLL1 (11728026_x_at) / Fold change /veh IGLL1 (11728026_x_at): dose or concentration left out as unconfirmed. As to conditions: MV-4-11 cells, 48 hours.

The text below walks through data of article PMC5218480 (PLoS ONE, 2017).

Consider `Nc1ccc(-c2cccs2)cc1NC(=O)c1ccc2c(c1)cc(C1CC1)n2CCN1CCOCC1` [ACY-1035], for which the “RFU RGS16 (11720943_a_at)” value is listed as 70.47 RFU.
